Measured values published in the supplement of paper PMC8633005.

Key:
Experiment in all cases: drug sensitivity score (DSS) (DSS (unitless, 0-50 scale)); higher = more sensitive (stronger viability inhibition); extreme values may be limits of the assay
Conditions in all cases: 72 h; culture: 2D
Bowes = test system: Bowes
Summary of the method: (§1)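 Drug sensitivity scores, modified area-under-curve measures, were derived from dose-response curves fitted in the in-house Breeze software. The curves came from melanoma cell lines and patient-derived melanoma cultures (1000–1500 cells per well) grown in 2D in 384-well plates holding a 527-compound oncology library. Each compound was dissolved in DMSO or water and tested at five concentrations across a 10,000-fold range. Viability was read by CellTiter-Glo luminescence after 72 h at 37 °C.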

FM-MEL-2 = test system: FM-MEL-2
Summary of the method: as §1

FM-MEL-3 = test system: FM-MEL-3
Summary of the method: as §1

FM-MEL-6 = test system: FM-MEL-6
Summary of the method: as §1

SK-MEL-28 = test system: SK-MEL-28
Summary of the method: as §1

SK-MEL-2 = test system: SK-MEL-2
Summary of the method: as §1

WM165 = test system: WM165
Summary of the method: as §1

WM852 = test system: WM852
Summary of the method: as §1

| Compound | drug sensitivity score (Bowes) | drug sensitivity score (FM-MEL-2) | drug sensitivity score (FM-MEL-3) | drug sensitivity score (FM-MEL-6) | drug sensitivity score (SK-MEL-28) | drug sensitivity score (SK-MEL-2) | drug sensitivity score (WM165) | drug sensitivity score (WM852) |
| --- | --- | --- | --- | --- | --- | --- | --- | --- |
| CC(C)Oc1ccc(C(=O)N[C@H](CNC(=O)CN(C)C)Cc2ccc(-c3cn4cccc([C@H](C)O)c4n3)cc2)cc1Cl | 19.2 | 7.3 | 6.3 | 4.7 | 5.3 | 13.5 | 13.7 | 9.5 |
| C[C@@]1(C(=O)Nc2ccc(F)nc2)CCCN1c1nc(Nc2cc(C3CC3)n[nH]2)c2cccn2n1 | 11.7 | 5 | 17.9 | 6.1 | 2 | 2.9 | 13.4 | 6.9 |
| Cc1ncc(Cl)cc1NCc1ccc(C(=O)N[C@@H](CC2CCCC2)C(=O)NC2CC2)s1 | 0 | 0 | 4.6 | 0 | 0 | 0 | 0 | 0 |
| Cn1cc(C2=Nc3cc(NC(=O)C(N)C4CCCCC4)cc4c3C2=CNNC4=O)cn1 (centres undefined) | 15.5 | 3.1 | 9.7 | 11.1 | 2.3 | 11 | 13.5 | 12.5 |
| N#Cc1ccc(COC[C@H]2O[C@@H](n3c(NCc4ccc(Cl)c(Cl)c4)nc4c(N)ncnc43)[C@H](O)[C@@H]2O)cc1 | 2.7 | 4.2 | 6.8 | 1 | 5.5 | 0 | 5.1 | 0 |
| COc1ccc(C[C@H](NC(=O)[C@H](C)NC(=O)CN2CCOCC2)C(=O)N[C@@H](Cc2ccccc2)C(=O)C2(C)CO2)cc1 (stereo in doubt) [ONX-0914] | 21.2 | 13.5 | 19.2 | 18.7 | 19.4 | 15.6 | 18.8 | 16.6 |
| Cn1cc(C[C@@H](N)C(=O)O)c2ccccc21 [1-methyl-D-tryptophan] | 0 | 0 | 0 | 0.6 | 0 | 0 | 0 | 0 |
| CC/C(=C(\c1ccc(O)cc1)c1ccc(OCCN(C)C)cc1)c1ccccc1 [4-hydroxytamoxifen] | 0 | 6.6 | 7.4 | 7.8 | 4.5 | 2.8 | 3.9 | 7.9 |
| Nc1ncnc2c1nc(N)n2[C@@H]1O[C@H](CO)[C@@H](O)[C@H]1O [8-amino-adenosine] | 16.3 | 19.4 | 18.5 | 20.5 | 22.6 | 20.9 | 23.2 | 18.1 |
| Nc1ncnc2c1nc(Cl)n2[C@@H]1O[C@H](CO)[C@@H](O)[C@H]1O [8-chloro-adenosine] | 5.2 | 0.9 | 3.3 | 7.5 | 5.1 | 7.7 | 14.8 | 4.6 |
| COc1cc2c(cc1OCCCN1CCCC1)N=C(N)C21CCC1 [A-366] | 3.8 | 0 | 0.4 | 0.5 | 0.6 | 0 | 2.3 | 2.7 |
| COc1ccc(S(=O)(=O)Nc2cccnc2Nc2ccc(O)cc2)cc1 [ABT-751] | 11 | 4 | 5.7 | 9.2 | 5.7 | 9 | 10.3 | 8.9 |
| C[C@H](Nc1ncnc2[nH]cnc12)c1cc2ccc(F)cc2nc1-c1ccccn1 [AMG319] | 0 | 1.7 | 0 | 0.6 | 0 | 0 | 0 | 0 |
| CC(C)[C@@H](CS(=O)(=O)C(C)C)N1C(=O)[C@@](C)(CC(=O)O)C[C@H](c2cccc(Cl)c2)[C@H]1c1ccc(Cl)cc1 [AMG-232] | 0 | 1.8 | 10.5 | 0 | 0 | 0 | 19 | 0 |
| COCCOc1cnc2ccn([C@H](C)c3nnc4c(F)cc(-c5cnn(C)c5)cn34)c(=O)c2c1 [AMG-337] | 0 | 0 | 0 | 0 | 0 | 0 | 0 | 0 |
| CC1CCC(n2c3cnccc3c3cnc(Nc4ccc5c(n4)CCN(C(=O)CO)C5)nc32)CC1 (centres undefined) [AMG-925] | 0 | 0.7 | 0 | 0.7 | 0 | 0 | 0 | 1.8 |
| COCC1(CO)C(=O)C2CCN1CC2 (centres undefined) [APR-246] | 0 | 0 | 0 | 0 | 0 | 0 | 0 | 0 |
| CC(C)[C@H](C(=O)Nc1ccc(C(=O)NO)cc1)c1ccccc1 [AR-42] | 6 | 9.8 | 11.8 | 11.6 | 10.3 | 12.7 | 14 | 3.9 |
| Cc1sc2c(c1C)C(c1ccc(Cl)cc1)=N[C@@H](CC(=O)Nc1ccc(OCCOCCOCCOCCNc3cccc4c3C(=O)N(C3CCC(=O)NC3=O)C4=O)cc1)c1nnc(C)n1-2 (some centres undefined) [ARV-825] | 14.2 | 4.7 | 4.8 | 6.1 | 3.4 | 2.9 | 8.3 | 0 |
| COc1cc(N2CCC(N3CCN(C)CC3)CC2)ccc1Nc1ncnc(Nc2ccccc2S(=O)(=O)C(C)C)n1 [ASP3026] | 4.8 | 2.4 | 2.6 | 4.4 | 2 | 2.7 | 5.5 | 5.2 |
| O=C(NC1CCNCC1)c1n[nH]cc1NC(=O)c1c(Cl)cccc1Cl [AT7519] | 21.4 | 7.7 | 12.8 | 19.3 | 10.5 | 15.1 | 20 | 15.3 |
| O=C(Nc1c[nH]nc1-c1nc2ccc(CN3CCOCC3)cc2[nH]1)NC1CC1 [AT9283] | 8 | 0 | 0 | 0 | 2.9 | 2.3 | 8 | 2.9 |

| Compound | drug sensitivity score (Bowes) | drug sensitivity score (FM-MEL-2) | drug sensitivity score (FM-MEL-3) | drug sensitivity score (FM-MEL-6) | drug sensitivity score (SK-MEL-28) | drug sensitivity score (SK-MEL-2) | drug sensitivity score (WM165) | drug sensitivity score (WM852) |
| --- | --- | --- | --- | --- | --- | --- | --- | --- |
| CN[C@@H](C)C(=O)N[C@H]1CN(C(=O)CC(C)C)CC[C@H]2CC[C@@H](C(=O)NC(c3ccccc3)c3ccccc3)N2C1=O [AT-406] | 1.9 | 9.7 | 0 | 2.2 | 0 | 0.1 | 0 | 0 |
| CC[C@H](CC#N)OC(=O)N[C@@H](C)c1cccc(NC(=O)Nc2ccc(-c3cnco3)c(OC)c2)c1 [AVN944] | 10.4 | 8.1 | 10.5 | 12.8 | 13.3 | 4.8 | 18.9 | 8.4 |
| COc1cc(N2CCN(C)CC2)ccc1Nc1nccc(-c2cn(C)c3cnccc23)n1 [AZ191] | 3.4 | 2.4 | 0.6 | 0 | 0 | 0 | 2.7 | 1.9 |
| COc1cc(OC2CCN(C)CC2)ccc1Nc1ncc2c(n1)n(C1CCCC1)c(=O)n2C [AZ 3146] | 3.3 | 3.3 | 2.2 | 3 | 1.7 | 1.3 | 5.5 | 3.2 |
| CN(C)CCCOc1ccc(-c2ccc3ncc4c(c3c2)n(C2CCOCC2)c(=O)n4C)cn1 [AZD0156] | 0 | 0.4 | 0 | 0 | 0 | 0 | 0.3 | 0 |
| N[C@@H]1CCCN(c2c(/C=C3\SC(=O)NC3=O)cccc2-c2ccccc2)C1 [AZD1208] | 0 | 2.8 | 2 | 0.8 | 0.4 | 0 | 0 | 0 |
| Cc1cc(Nc2nc(N[C@@H](C)c3ncc(F)cn3)ncc2Cl)[nH]n1 [AZD1480] | 0 | 0 | 0 | 0 | 0 | 0 | 0 | 0 |
| COc1cc2ncnc(Nc3cccc(Cl)c3F)c2cc1OC(=O)N1CCN(C)C[C@H]1C [AZD3759] | 0 | 0 | 0 | 0 | 0 | 0 | 0 | 0 |
| Cc1[nH]nc(C(F)(F)F)c1Cc1sc2c(c1C(=O)N1C[C@](C)(O)CO1)c(=O)n(C)c(=O)n2C(C)C [AZD3965] | 8 | 0 | 0 | 0.3 | 0 | 0 | 0 | 0 |
| COc1cc(CCc2cc(NC(=O)c3ccc(N4CC(C)NC(C)C4)cc3)n[nH]2)cc(OC)c1 (centres undefined) [AZD4547] | 0 | 0 | 0 | 0 | 0 | 0 | 0 | 0 |
| C[C@@H]1COCCN1c1cc(C2([S@](C)(=N)=O)CC2)nc(-c2cc[nH]c3nccc2-3)n1 [AZD6738] | 19.3 | 3.4 | 9.7 | 7 | 2.7 | 10.8 | 10.2 | 14.8 |
| CN(C)C(=O)c1ccc(S(=O)(=O)c2ccc(NC(=O)[C@@](C)(O)C(F)(F)F)c(Cl)c2)cc1 [AZD7545] | 2.2 | 0 | 0 | 0 | 0 | 0 | 0 | 1.1 |
| NC(=O)Nc1cc(-c2cccc(F)c2)sc1C(=O)N[C@H]1CCCNC1 [AZD7762] | 7.7 | 0.2 | 6.1 | 6.5 | 2.2 | 4.2 | 4.7 | 8.4 |
| N#Cc1ccc2[nH]c(O)c(-c3ccc(CN4CCOCC4)cn3)c2c1 [AZD-1080] | 0 | 0 | 0 | 0 | 0 | 0 | 2.2 | 0.6 |
| Cc1ncc(-c2ccnc(Nc3ccc(S(C)(=O)=O)cc3)n2)n1C(C)C [AZD-5438] | 10.7 | 2.2 | 4.7 | 7 | 9.9 | 4.2 | 10.6 | 6.2 |
| Cc1cc([C@@H](C)Nc2ccccc2C(=O)O)c2nc(N3CCOCC3)cc(=O)n2c1 [AZD-6482] | 1.2 | 1.9 | 1.7 | 1.4 | 3.3 | 0 | 0.5 | 0.4 |
| C[C@@H](Nc1cc(F)cc(F)c1)c1cc(C(=O)N(C)C)cc2c(=O)cc(N3CCOCC3)oc12 [AZD-8186] | 2.6 | 2.4 | 0 | 2.2 | 3.7 | 0 | 0.4 | 0.8 |
| CCN1CCN(Cc2ccc(Nc3ncc(F)c(-c4cc(F)c5nc(C)n(C(C)C)c5c4)n3)nc2)CC1 [Abemaciclib] | 9.6 | 4 | 7.2 | 0 | 8.7 | 0 | 6.6 | 5.3 |
| CN(C)Cc1c(C(=O)NCCOc2ccc(C(=O)NO)cc2)oc2ccccc12 [Abexinostat] | 10 | 15.9 | 14.6 | 14.7 | 13 | 15.9 | 17 | 9.1 |
| C[C@]12CC[C@H](O)CC1=CC[C@@H]1[C@@H]2CC[C@]2(C)C(c3cccnc3)=CC[C@@H]12 [Abiraterone] | 0 | 0 | 0 | 0 | 0 | 0 | 0 | 0 |
| CC#CC(=O)N1CCC[C@H]1c1nc(-c2ccc(C(=O)Nc3ccccn3)cc2)c2c(N)nccn12 [Acalabrutinib] | 0 | 1 | 2.2 | 3.4 | 0 | 0 | 0 | 0 |
